Where two headings read alike, the source gives them in different places.
Assays:
Type in all cases: in vivo, male rats
[1] = tested on: 5-LO; assay: Reversed Passive Arthus Reaction (RPAR) in the pleural cavity: LTE-4 in exudate
Procedure: (§1) Reversed Passive Arthus Reaction (RPAR) Assay
(§2) Groups of 4 male rats were injected in the penile vein with antigen (1 mg BSA in 0.2 mL of saline per rat) and 0.5 hour later injected in the pleural cavity with antibody (1.0 mg antibody protein in the IgG fraction of rabbit anti-BSA in 0.2 mL). […] After 4 hours the animals were killed with CO2, and the pleural cavities were opened and the exudate drained into a graduated conical glass centrifuge tube containing indomethacin (1.8 ug) and nordihydroguaiaretic acid (NDGA) (15 ug) to block ex vivo metabolite synthesis. The volume of the exudate was measured. The cavity was then washed out with saline-EDTA to achieve a final volume of 5.0 mL. The number of cells were determined in a Colulter Counter. The cells were spun-down (1000×g) and the exudate supernatant was added to 4 volumes of 95% ethanol and samples were kept on ice for 30 minutes. After removal of the protein precipitate (2,500×g) the ethanol extract of the exudate was dried under N2 and then stored at -20° C. For radioimmunoassay (RIA) analysis the samples were redissolved in water to a volume of 1 mL per rat. Utilizing internally spiked samples, recovery of TXB2 (tritiated thromboxane B2) and LTE4 (tritiated leukotriene-E4) from exudates was determined to be 84±2% (SEM) and 89±2% (N=4), respectively. Exudate samples were directly assayed in duplicate with the commercial ^3 H-TXB2 RIA kit from New England Nuclear and the ^3 H-LTC4 /D4 /E4 kit from Amersham. The assay was validated using reversed-phase HPLC analysis of LTs in the standard procedure described by M. W. Musch, R. W. Bryant, C. Coscollaela, R. F. Myers and M. I. Siegel, Prostaglandins, Vol. 29, pp 405-430 (1985). Samples of ethanol exudate extract were "spiked" with ^3 H-LTs to follow HPLC purification and recovery.

[2] = tested on: CO (cyclooxygenase); assay: Reversed Passive Arthus Reaction (RPAR) in the pleural cavity: TXB-2 in exudate
Procedure: as §1, §2

[3] = tested on: Reversed Passive Arthus Reaction (RPAR) in the pleural cavity; assay: Reversed Passive Arthus Reaction (RPAR) in the pleural cavity: cells and fluid; conditions: Rattus norvegicus, 4 h; for inhibition in vivo at 25 mg/kg: dose 25 mpk; for inhibition in vivo at 20 mg/kg: dose 20 mpk
Procedure: as §1, §2

[4] = read-out: RPAR-Pleural Cavity % Inhibition cells
[5] = read-out: RPAR-Pleural Cavity % Inhibition fluid

Row | Compound | RPAR-Pleural Cavity % Inhibition LTE-4 ([1]; dose 25 mpk) [%] | RPAR-Pleural Cavity % Inhibition TXB-2 ([2]; dose 25 mpk) [%] | inhibition in vivo at 25 mg/kg [3, 4] [%] | inhibition in vivo at 25 mg/kg [3, 5] [%] | RPAR-Pleural Cavity % Inhibition LTE-4 ([1]; dose 20 mpk) [%] | RPAR-Pleural Cavity % Inhibition TXB-2 ([2]; dose 20 mpk) [%] | inhibition in vivo at 20 mg/kg [3, 4] [%] | inhibition in vivo at 20 mg/kg [3, 5] [%]
1 | CN1C(=O)C(C)(C)c2cccnc21 [Compound 3, 1,3-dihydro-1,3,3-trimethyl-2H-pyrrolo[2,3-b]pyridin-2-one] | 62 | 17 | 69 | 53 |  |  |  | 
2 | CC1(C)C(=O)N(c2cccc(Cl)c2)c2ncccc21 [Compound 5, 1-(3-chlorophenyl)-1,3-dihydro-3,3-dimethyl-2H-pyrrolo[2,3-b]pyridin-2-one] | 59 | 62 | 51 | 49 |  |  |  | 
3 | CC1(C)C(=O)N(c2ccc(Cl)c(Cl)c2)c2ncccc21 [Compound 6, 1-(3,4-dichlorophenyl)-1,3-dihydro-3,3-dimethyl-2H-pyrrolo[2,3-b]pyridin-2-one] | 46 | 44 | 26 | 25 |  |  |  | 
4 | COc1ccc(N2C(=O)C(C)(C)c3cccnc32)cc1 [Compound 8, 1,3-dihydro-3,3-dimethyl-1-(4-methoxyphenyl)-2H-pyrrolo[2,3-b]pyridin-2-one] | 0 | 34 | 63 | 42 |  |  |  | 
5 | CC1(C)C(=O)N(c2ccc(F)cc2)c2ncccc21 [Compound 9, 1,3-dihydro-3,3-dimethyl-1-(4-fluorophenyl)-2H-pyrrolo[2,3-b]pyridin-2-one] |  |  |  |  | 36 | 53 | 70 | 43
